Results taken from paper PMC4149842 (ChemMedChem, 2014).
Read-outs that look alike come from different tables or passages of the source.

Legend:
[1] = target: T1, human equilibrative nucleoside transporter 1 (hENT1) (Homo sapiens, UniProt Q99808); assay: inhibition of initial rate of 3H-uridine; format: cell-based
T1 sequence (Q99808 2-456): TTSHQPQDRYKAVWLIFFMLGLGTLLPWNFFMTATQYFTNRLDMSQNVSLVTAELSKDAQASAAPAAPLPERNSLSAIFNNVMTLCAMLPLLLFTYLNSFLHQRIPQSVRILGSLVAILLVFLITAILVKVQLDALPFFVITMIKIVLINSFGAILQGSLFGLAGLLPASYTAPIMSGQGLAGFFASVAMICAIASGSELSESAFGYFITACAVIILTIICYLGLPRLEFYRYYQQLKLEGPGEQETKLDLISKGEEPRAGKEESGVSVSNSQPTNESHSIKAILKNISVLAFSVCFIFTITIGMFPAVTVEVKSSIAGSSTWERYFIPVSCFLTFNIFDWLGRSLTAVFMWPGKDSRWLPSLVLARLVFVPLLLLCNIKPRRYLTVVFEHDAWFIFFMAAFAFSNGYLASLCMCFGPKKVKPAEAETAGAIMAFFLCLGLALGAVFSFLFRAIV

[2] = target: T1, human equilibrative nucleoside transporter 1 (hENT1); assay: inhibition of initial rate of 3H-uridine; format: cell-based; remark: listed apart in the source

| IC50 [1] [nM] | IC50 [2] [nM] | Compound |
| --- | --- | --- |
| 123 ± 31 |  | NC(=O)c1cn([C@@H]2O[C@H](CO)[C@@H](O)[C@H]2O)c2ncnc(NCc3ccc([N+](=O)[O-])cc3)c12 [2c, 5-Carboxamido-4-(4-nitrobenzylamino)-7-(β-D-ribofuranosyl)pyrrolo[2,3-d]pyrimidine] |
|  | > 1000 | O=[N+]([O-])c1ccc(CNc2ncnc3c2ccn3[C@@H]2O[C@H](CO)[C@@H](O)[C@H]2O)cc1 [2b, 4-(4-Nitrobenzylamino)-7-(β-D-ribofuranosyl)pyrrolo[2,3-d]pyrimidine] |
